From patent US10329302B2, “Bicyclic-fused heteroaryl or aryl compounds” (Pfizer Inc., priority 2014, dated 2019) come the findings set out here.

The target in experiment [1] is human IRAK4 FL (Full Length) (Homo sapiens (Human), UniProt Q9NWZ3). Nature of the experiment: IRAK4 Enzymatic DELFIA Assay, Protocol A. It counts as biochemical.
The subject of experiment [2] is R848-induced TNFα production by human peripheral blood mononuclear cells (PBMCs). As to the kind of experiment: R848 Induced TNFα in Human PBMC Assay. It counts as cell-based.
Where [3] appears, read: human IRAK4 FL, 0.6 mM ATP (KM), read-out: IRAK4 DELFIA Protocol A IC50.
Where [4] appears, read: Homo sapiens, PBMC, 3 h, read-out: R848-induced TNFa PBMC IC50 (nM).

Like-named read-outs stand apart in the source and are kept apart here.

As usually defined, the IC50 is the concentration at which inhibition is half-maximal.

Sequence of human IRAK4 FL (Full Length) (Q9NWZ3 whole entry): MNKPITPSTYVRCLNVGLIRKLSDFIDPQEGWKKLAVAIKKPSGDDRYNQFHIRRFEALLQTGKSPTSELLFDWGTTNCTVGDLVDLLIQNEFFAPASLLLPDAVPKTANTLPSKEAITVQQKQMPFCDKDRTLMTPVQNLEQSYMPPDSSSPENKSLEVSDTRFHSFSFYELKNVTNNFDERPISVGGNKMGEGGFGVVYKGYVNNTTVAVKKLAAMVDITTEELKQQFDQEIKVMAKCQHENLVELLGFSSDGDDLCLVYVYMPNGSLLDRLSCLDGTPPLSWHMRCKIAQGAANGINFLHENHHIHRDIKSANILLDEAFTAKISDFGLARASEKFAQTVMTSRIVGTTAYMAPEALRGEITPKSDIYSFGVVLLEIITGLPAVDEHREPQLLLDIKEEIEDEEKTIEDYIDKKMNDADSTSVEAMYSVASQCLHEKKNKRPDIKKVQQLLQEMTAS

With `COc1cc2c(OC[C@H]3NC(=O)[C@@]4(F)[C@@H]3[C@@H]4C)ccnc2cc1C(N)=O` [Example 323, 4-{[(1R,2S,5S)-5-fluoro-6-methyl-4-oxo-3-azabicyclo[3.1.0]hex-2-yl]methoxy}-6-methoxyquinoline-7-carboxamide], the concentration for half-maximal inhibition (IC50) in experiment [1] (setting [3]) worked out at 0.2 nM; in experiment [2] (setting [4]) it was 30 nM.

Take `CC[C@H]1[C@@H](COc2nccc3cc(C(N)=O)c(OC)cc23)NC(=O)C1(F)F` [Example 345, 1-{[(2S,3S)-3-ethyl-4,4-difluoro-5-oxopyrrolidin-2-yl]methoxy}-7-methoxyisoquinoline-6-carboxamide]: the IC50 worked out at 0.2 nM in experiment [1] (setting [3]) and 1.6 nM in experiment [2] (setting [4]).

`CCOc1cc2c(OC[C@@H]3C[C@](C)(F)C(=O)N3)nccc2cc1C(N)=O` [Example 278, 7-ethoxy-1-{[(2S,4S)-4-fluoro-4-methyl-5-oxopyrrolidin-2-yl]methoxy}isoquinoline-6-carboxamide]: the figures for the IC50 in experiment [1] (setting [3]) and in experiment [2] (setting [4]) were 8.5 nM and 299 nM, respectively.

With `CC[C@@H]1[C@H](F)C(=O)N[C@@H]1COc1nccc2cc(C(N)=O)c(OC)c(F)c12` [Example 361, 1-{[(2S,3S,4S)-3-ethyl-4-fluoro-5-oxopyrrolidin-2-yl]methoxy}-8-fluoro-7-methoxyisoquinoline-6-carboxamide], the IC50 in experiment [1] (setting [3]) worked out at 4.8 nM; in experiment [2] (setting [4]), 27 nM.

In the case of `COc1cc2c(OC[C@@H]3C[C@@H](F)C(=O)N3)nccc2cc1C(N)=O` [Example 253, 1-{[(2S,4R)-4-fluoro-5-oxopyrrolidin-2-yl]methoxy}-7-methoxyisoquinoline-6-carboxamide], the results for the 50% inhibitory concentration (IC50) in experiment [1] (setting [3]) and in experiment [2] (setting [4]) were 2.6 nM and 122 nM, respectively.

For the molecule `CC[C@@H]1[C@H](F)C(=O)N[C@@H]1COc1nccc2cc(C(N)=O)c(OC(C)C)cc12` [Example 358, 1-{[(2S,3S,4S)-3-ethyl-4-fluoro-5-oxopyrrolidin-2-yl]methoxy}-7-(propan-2-yloxy)isoquinoline-6-carboxamide], the half-maximal inhibitory concentration (IC50) in experiment [1] (setting [3]) came out at 0.4 nM; in experiment [2] (setting [4]), 1.3 nM.

Turning to `CC(C)Oc1cc2c(OC[C@@H]3CCC(=O)N3)cccc2cc1C(N)=O` [Example 114, 5-{[(2S)-5-oxopyrrolidin-2-yl]methoxy}-3-(propan-2-yloxy)naphthalene-2-carboxamide], the values for the concentration for half-maximal inhibition (IC50) in experiment [1] (setting [3]) and in experiment [2] (setting [4]) were 0.7 nM and 33 nM, respectively.

On to `COc1cc2c(OC[C@@H]3C[C@@H](CC#N)C(=O)N3)nccc2cc1C(N)=O` [Example 225, 1-{[(2S,4S)-4-(cyanomethyl)-5-oxopyrrolidin-2-yl]methoxy}-7-methoxyisoquinoline-6-carboxamide], for which the IC50 in experiment [1] (setting [3]) came out at 3.4 nM; in experiment [2] (setting [4]) it was 155 nM.

Turning to `C=C[C@H]1CC(=O)N[C@@H]1COc1nccc2cc(C(N)=O)c(OC)cc12` [Example 329, 1-{[(2S,3R)-3-ethenyl-5-oxopyrrolidin-2-yl]methoxy}-7-methoxyisoquinoline-6-carboxamide], the IC50 in experiment [1] (setting [3]) came out at 13 nM; in experiment [2] (setting [4]), 252 nM.

For `COc1cc2c(OC[C@H]3NC(=O)O[C@@H]3C)cccc2cc1C(N)=O` [Example 228, 3-methoxy-5-{[(4R,5R)-5-methyl-2-oxo-1,3-oxazolidin-4-yl]methoxy}naphthalene-2-carboxamide], the half-inhibitory concentration (IC50) in experiment [1] (setting [3]) was found to be 4.2 nM; in experiment [2] (setting [4]) it was 118 nM.

As to `CC(C)Oc1cc2c(OC[C@@H]3C[C@](F)(CO)C(=O)N3)nccc2cc1C(N)=O` [Example 163, 1-{[(2S,4S)-4-fluoro-4-(hydroxymethyl)-5-oxopyrrolidin-2-yl]methoxy}-7-(propan-2-yloxy)isoquinoline-6-carboxamide], the values for the half-maximal inhibitory concentration (IC50) in experiment [1] (setting [3]) and in experiment [2] (setting [4]) were 1400 nM and 7450 nM, respectively.

For `COc1cc2c(OC[C@H]3NC(=O)[C@H]4C3[C@H]4F)nccc2cc1C(N)=O` (stereo in doubt) [Example 334, 1-(((1R,2S,5R,6R)-6-fluoro-4-oxo-3-azabicyclo[3.1.0]hexan-2-yl)methoxy)-7-methoxyisoquinoline-6-carboxamide], the 50% inhibitory concentration (IC50) in experiment [1] (setting [3]) was found to be 4.2 nM; in experiment [2] (setting [4]), 1770 nM.

Take `COc1cc2c(OC[C@H]3NC(=O)C[C@@H]3CF)nccc2cc1C(N)=O` [Example 249, 1-{[(2S,3S)-3-(fluoromethyl)-5-oxopyrrolidin-2-yl]methoxy}-7-methoxyisoquinoline-6-carboxamide]: the figures for the IC50 in experiment [1] (setting [3]) and in experiment [2] (setting [4]) were 20 nM and 764 nM, respectively.

As for `CC[C@]1(F)C[C@@H](COc2nccc3cc(C(N)=O)c(OC)cc23)NC1=O` [Example 257, 1-{[(2S,4S)-4-ethyl-4-fluoro-5-oxopyrrolidin-2-yl]methoxy}-7-methoxyisoquinoline-6-carboxamide], the IC50 was determined as 6.8 nM in experiment [1] (setting [3]) and 60 nM in experiment [2] (setting [4]).

Consider `CC[C@@]1(F)C[C@@H](COc2nccc3cc(C(N)=O)c(OC)cc23)NC1=O` [Example 256, 1-{[(2S,4R)-4-ethyl-4-fluoro-5-oxopyrrolidin-2-yl]methoxy}-7-methoxyisoquinoline-6-carboxamide], for which the IC50 was 2000 nM in experiment [1] (setting [3]) and 5620 nM in experiment [2] (setting [4]).

Regarding `Cc1nc(-c2cnc(OC[C@@H]3CCC(=O)N3)c3cc(OC(C)C)c(C(N)=O)cc23)cn1C` [Example 372, 4-(1,2-dimethyl-1H-imidazol-4-yl)-1-{[(2S)-5-oxopyrrolidin-2-yl]methoxy}-7-(propan-2-yloxy)isoquinoline-6-carboxamide], the IC50 was 11 nM in experiment [1] (setting [3]) and 649 nM in experiment [2] (setting [4]).

For the molecule `COc1c(C(N)=O)cc2ccnc(OC[C@H]3NC(=O)[C@@H]4[C@@H](C)[C@@H]43)c2c1F` [Example 365, 8-fluoro-7-methoxy-1-{[(1S,2S,5R)-6-methyl-4-oxo-3-azabicyclo[3.1.0]hex-2-yl]methoxy}isoquinoline-6-carboxamide], the IC50 is 187 nM in experiment [1] (setting [3]) and 724 nM in experiment [2] (setting [4]).

`COc1cc2c(OC[C@H]3NC(=O)[C@H](F)[C@H]3C3CC3)nccc2cc1C(N)=O` [Example 369, 1-{[(2S,3S,4R)-3-cyclopropyl-4-fluoro-5-oxopyrrolidin-2-yl]methoxy}-7-methoxyisoquinoline-6-carboxamide]: the IC50 in experiment [1] (setting [3]) amounted to 3.7 nM; in experiment [2] (setting [4]) it was 45 nM.

Regarding `COc1cc2c(OC[C@H]3COC(=O)N3)nccc2cc1C(N)=O` [Example 229, 7-methoxy-1-{[(4S)-2-oxo-1,3-oxazolidin-4-yl]methoxy}isoquinoline-6-carboxamide], the figures for the half-inhibitory concentration (IC50) in experiment [1] (setting [3]) and in experiment [2] (setting [4]) were 3510 nM and 6300 nM, respectively.

As to `CC[C@@H]1[C@H](N)C(=O)N[C@@H]1COc1nccc2cc(C(N)=O)c(OC)cc12` [Example 356, 1-{[(2S,3R,4S)-4-amino-3-ethyl-5-oxopyrrolidin-2-yl]methoxy}-7-methoxyisoquinoline-6-carboxamide], the figures for the IC50 in experiment [1] (setting [3]) and in experiment [2] (setting [4]) were 115 nM and 594 nM, respectively.

Turning to `C[C@@H]1[C@H](F)C(=O)N[C@@H]1COc1nccc2cc(C(N)=O)c(OC3CC3)cc12` [Example 281, 7-(cyclopropyloxy)-1-{[(2S,3S,4S)-4-fluoro-3-methyl-5-oxopyrrolidin-2-yl]methoxy}isoquinoline-6-carboxamide], the half-maximal inhibitory concentration (IC50) in experiment [1] (setting [3]) came to 11 nM; in experiment [2] (human PBMC, absence of serum, 3 hours, read-out: R848-induced TNFa PBMC IC50), 127 nM.

With `COc1cc2c(OC[C@H]3NC(=O)[C@@H]4C[C@H]34)ccnc2cc1C(N)=O` [Example 326, 6-methoxy-4-{[(1S,2S,5R)-4-oxo-3-azabicyclo[3.1.0]hex-2-yl]methoxy}quinoline-7-carboxamide], the results for the IC50 in experiment [1] (setting [3]) and in experiment [2] (setting [4]) were 1.2 nM and 1200 nM, respectively.

For `COc1cc2c(OC[C@H]3NC(=O)[C@@H]4[C@@H](CF)[C@@H]43)ccnc2cc1C(N)=O` [Example 333, 4-{[(1R,2S,5S)-6-(fluoromethyl)-4-oxo-3-azabicyclo[3.1.0]hex-2-yl]methoxy}-6-methoxyquinoline-7-carboxamide], the 50% inhibitory concentration (IC50) in experiment [1] (setting [3]) worked out at 0.3 nM; in experiment [2] (setting [4]), 182 nM.

Regarding `CC(C)Oc1cc2c(OC[C@@H]3CC(F)(F)C(=O)N3)nccc2cc1C(N)=O` [Example 128, 1-{[(2S)-4,4-difluoro-5-oxopyrrolidin-2-yl]methoxy}-7-(propan-2-yloxy)isoquinoline-6-carboxamide], the half-inhibitory concentration (IC50) in experiment [1] (setting [3]) worked out at 0.3 nM; in experiment [2] (setting [4]), 27 nM.

Turning to `COc1cc2c(OC[C@@H]3C[C@@H](C)C(=O)N3)nccc2cc1C(N)=O` [Example 243, 7-methoxy-1-{[(2S,4R)-4-methyl-5-oxopyrrolidin-2-yl]methoxy}isoquinoline-6-carboxamide], the half-maximal inhibitory concentration (IC50) in experiment [1] (setting [3]) came out at 205 nM; in experiment [2] (setting [4]), 713 nM.

Consider `COc1cc2c(OC[C@@H]3C[C@@](F)(CO)C(=O)N3)nccc2cc1C(N)=O` [Example 205, 1-{[(2S,4R)-4-fluoro-4-(hydroxymethyl)-5-oxopyrrolidin-2-yl]methoxy}-7-methoxyisoquinoline-6-carboxamide], for which the concentration for half-maximal inhibition (IC50) came out at 3.6 nM in experiment [1] (setting [3]) and 380 nM in experiment [2] (setting [4]).

Take `COc1cc2c(OC[C@H]3NC(=O)C[C@H]3CF)nccc2cc1C(N)=O` [Example 366, 1-{[(2S,3R)-3-(fluoromethyl)-5-oxopyrrolidin-2-yl]methoxy}-7-methoxyisoquinoline-6-carboxamide]: the concentration for half-maximal inhibition (IC50) in experiment [1] was determined as 6.1 nM; in experiment [2] (setting [4]), 91 nM.

Turning to `COc1cc2c(OC[C@H]3NC(=O)[C@H]4[C@@H]3C4(C)C)nccc2cc1C(N)=O` [Example 263, 1-{[(1R,2S,5S)-6,6-dimethyl-4-oxo-3-azabicyclo[3.1.0]hex-2-yl]methoxy}-7-methoxyisoquinoline-6-carboxamide], the 50% inhibitory concentration (IC50) in experiment [1] (setting [3]) worked out at 80 nM; in experiment [2] (setting [4]), 496 nM.

On to `COc1cc2c(OC[C@H]3NC(=O)[C@]4(F)C[C@H]34)ccnc2cc1C(N)=O` [Example 325, 4-{[(1R,2S,5S)-5-fluoro-4-oxo-3-azabicyclo[3.1.0]hex-2-yl]methoxy}-6-methoxyquinoline-7-carboxamide], for which the IC50 in experiment [1] (setting [3]) was 0.4 nM; in experiment [2] (setting [4]), 87 nM.
